Laboratory results as given in PMC8371461 (Frontiers in Pharmacology, 2021).
Read-outs that look alike come from different tables or passages of the source.

What was measured:
Assay in all cases: kinome scan
Assay type in all cases: binding
[1] = target: T1, SNRK (Homo sapiens, UniProt Q9NRH2); conditions: 10 µM
T1 construct: purchased DiscoverX (KINOMEscan)

[2] = target: T2, AMPK-alpha1 (Homo sapiens, UniProt Q13131); conditions: 10 µM
T2 construct: purchased DiscoverX (KINOMEscan)

[3] = target: T3, ERK1 (Homo sapiens, UniProt P27361); conditions: 10 µM
T3 construct: purchased DiscoverX (KINOMEscan)

[4] = target: T4, MKNK2 (Homo sapiens, UniProt Q9HBH9)
T4 construct: purchased DiscoverX (KINOMEscan)
T4 sequence (Q9HBH9 whole entry): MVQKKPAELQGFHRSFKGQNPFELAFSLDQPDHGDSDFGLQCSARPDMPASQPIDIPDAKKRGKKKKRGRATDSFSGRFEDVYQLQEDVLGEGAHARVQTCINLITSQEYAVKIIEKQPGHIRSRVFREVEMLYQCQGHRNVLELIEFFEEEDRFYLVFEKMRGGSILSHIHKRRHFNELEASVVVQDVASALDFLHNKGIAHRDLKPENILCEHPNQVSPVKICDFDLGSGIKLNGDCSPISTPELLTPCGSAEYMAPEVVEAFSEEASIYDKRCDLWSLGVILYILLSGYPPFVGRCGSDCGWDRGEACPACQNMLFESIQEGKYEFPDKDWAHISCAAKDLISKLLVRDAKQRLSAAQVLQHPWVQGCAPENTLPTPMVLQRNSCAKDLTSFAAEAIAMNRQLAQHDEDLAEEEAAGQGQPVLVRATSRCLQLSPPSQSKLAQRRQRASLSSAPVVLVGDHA

[5] = target: T5, HIPK4 (Homo sapiens, UniProt Q8NE63); conditions: 10 µM
T5 construct: purchased DiscoverX (KINOMEscan)

[6] = target: T6, AKT2 (Homo sapiens, UniProt P31751); conditions: 10 µM
T6 construct: purchased DiscoverX (KINOMEscan)

[7] = target: T7, PIK3CA(H1047Y) (Homo sapiens, UniProt P42336, H1047Y); conditions: 10 µM
T7 construct: purchased DiscoverX (KINOMEscan)

[8] = target: T8, EPHA6 (Homo sapiens, UniProt Q9UF33); conditions: 10 µM
T8 construct: purchased DiscoverX (KINOMEscan)

[9] = target: T9, MAP3K1 (Homo sapiens, UniProt Q13233); conditions: 10 µM
T9 construct: purchased DiscoverX (KINOMEscan)
T9 sequence (Q13233 whole entry): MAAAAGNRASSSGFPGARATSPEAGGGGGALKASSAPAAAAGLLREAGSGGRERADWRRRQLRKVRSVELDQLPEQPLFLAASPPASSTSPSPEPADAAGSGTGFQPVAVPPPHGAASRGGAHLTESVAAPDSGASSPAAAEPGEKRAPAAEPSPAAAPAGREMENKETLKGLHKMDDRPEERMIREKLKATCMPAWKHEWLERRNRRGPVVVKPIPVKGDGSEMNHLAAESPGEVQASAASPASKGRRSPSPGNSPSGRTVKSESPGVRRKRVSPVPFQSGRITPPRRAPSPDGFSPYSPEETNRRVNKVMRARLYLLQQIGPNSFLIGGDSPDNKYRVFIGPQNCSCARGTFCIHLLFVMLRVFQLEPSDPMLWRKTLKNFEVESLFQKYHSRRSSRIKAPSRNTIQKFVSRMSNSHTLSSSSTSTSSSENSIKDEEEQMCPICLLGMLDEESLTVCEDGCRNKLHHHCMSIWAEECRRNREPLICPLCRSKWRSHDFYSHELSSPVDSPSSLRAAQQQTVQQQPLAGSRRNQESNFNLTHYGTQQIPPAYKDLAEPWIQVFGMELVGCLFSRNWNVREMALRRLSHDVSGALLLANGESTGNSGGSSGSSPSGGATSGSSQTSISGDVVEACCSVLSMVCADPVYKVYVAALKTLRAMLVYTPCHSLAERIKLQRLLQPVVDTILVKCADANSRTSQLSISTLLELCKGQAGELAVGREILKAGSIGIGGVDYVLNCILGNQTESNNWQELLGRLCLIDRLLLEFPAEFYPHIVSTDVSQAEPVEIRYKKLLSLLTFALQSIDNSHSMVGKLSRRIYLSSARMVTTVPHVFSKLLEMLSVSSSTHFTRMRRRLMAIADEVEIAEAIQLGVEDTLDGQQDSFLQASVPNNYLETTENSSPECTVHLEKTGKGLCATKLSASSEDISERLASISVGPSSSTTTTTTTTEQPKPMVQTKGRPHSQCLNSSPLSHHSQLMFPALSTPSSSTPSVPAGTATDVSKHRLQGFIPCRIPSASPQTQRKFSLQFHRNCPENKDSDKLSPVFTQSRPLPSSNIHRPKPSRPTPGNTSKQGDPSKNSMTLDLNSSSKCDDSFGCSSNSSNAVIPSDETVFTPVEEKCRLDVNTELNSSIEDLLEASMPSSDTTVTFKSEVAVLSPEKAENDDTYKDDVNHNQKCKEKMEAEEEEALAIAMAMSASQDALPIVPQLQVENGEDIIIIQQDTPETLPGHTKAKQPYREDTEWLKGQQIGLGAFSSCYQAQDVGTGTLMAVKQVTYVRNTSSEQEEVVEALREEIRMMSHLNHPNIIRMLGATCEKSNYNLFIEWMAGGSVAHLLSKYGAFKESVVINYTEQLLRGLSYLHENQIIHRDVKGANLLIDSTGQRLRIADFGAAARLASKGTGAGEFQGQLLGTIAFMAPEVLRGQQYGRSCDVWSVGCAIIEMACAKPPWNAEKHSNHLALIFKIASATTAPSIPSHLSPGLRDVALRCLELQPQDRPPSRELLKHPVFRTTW

[10] = target: T10, JAK3(JH1domain-catalytic) (Homo sapiens, UniProt P52333); conditions: 10 µM
T10 construct: JAK3(JH1domain-catalytic); purchased DiscoverX (KINOMEscan)

[11] = target: T11, TIE2 (Homo sapiens, UniProt Q02763); conditions: 10 µM
T11 construct: purchased DiscoverX (KINOMEscan)

[12] = target: T12, ABL1(H396P)-phosphorylated (Homo sapiens, UniProt P00519, H396P); conditions: 10 µM
T12 construct: purchased DiscoverX (KINOMEscan)

[13] = target: T13, CDK2 (Homo sapiens, UniProt P24941); conditions: 10 µM
T13 construct: purchased DiscoverX (KINOMEscan)

[14] = target: T14, STK33 (Homo sapiens, UniProt Q9BYT3); conditions: 10 µM
T14 construct: purchased DiscoverX (KINOMEscan)

[15] = target: T15, YANK2 (Homo sapiens, UniProt Q9NY57); conditions: 10 µM
T15 construct: purchased DiscoverX (KINOMEscan)
T15 sequence (Q9NY57 whole entry): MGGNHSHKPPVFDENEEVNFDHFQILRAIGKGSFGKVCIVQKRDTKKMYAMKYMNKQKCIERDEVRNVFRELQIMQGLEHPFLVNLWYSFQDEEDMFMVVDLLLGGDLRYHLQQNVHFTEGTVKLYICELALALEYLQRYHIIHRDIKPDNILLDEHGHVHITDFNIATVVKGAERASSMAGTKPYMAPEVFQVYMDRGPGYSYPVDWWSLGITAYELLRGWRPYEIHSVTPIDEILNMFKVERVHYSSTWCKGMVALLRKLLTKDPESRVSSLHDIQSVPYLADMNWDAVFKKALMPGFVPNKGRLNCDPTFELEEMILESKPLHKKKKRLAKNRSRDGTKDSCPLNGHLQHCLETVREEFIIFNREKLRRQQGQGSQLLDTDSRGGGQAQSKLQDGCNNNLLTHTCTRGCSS

[16] = target: T16, NEK5 (Homo sapiens, UniProt Q6P3R8); conditions: 10 µM
T16 construct: purchased DiscoverX (KINOMEscan)

[17] = target: T17, NIM1 (Homo sapiens, UniProt Q8IY84); conditions: 10 µM
T17 construct: purchased DiscoverX (KINOMEscan)
T17 sequence (Q8IY84 whole entry): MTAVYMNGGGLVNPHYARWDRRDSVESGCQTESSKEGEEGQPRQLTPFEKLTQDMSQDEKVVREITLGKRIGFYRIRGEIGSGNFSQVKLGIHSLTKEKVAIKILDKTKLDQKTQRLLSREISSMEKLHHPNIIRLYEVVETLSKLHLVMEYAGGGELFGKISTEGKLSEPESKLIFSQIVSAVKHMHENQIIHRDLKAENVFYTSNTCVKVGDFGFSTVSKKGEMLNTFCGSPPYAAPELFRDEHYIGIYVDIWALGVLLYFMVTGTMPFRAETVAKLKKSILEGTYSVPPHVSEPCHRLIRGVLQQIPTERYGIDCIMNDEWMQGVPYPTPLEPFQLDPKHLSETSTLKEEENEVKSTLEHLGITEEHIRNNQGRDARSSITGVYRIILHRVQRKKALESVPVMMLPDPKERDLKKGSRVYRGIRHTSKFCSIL

[18] = target: T18, PKMYT1 (Homo sapiens, UniProt Q99640); conditions: 10 µM
T18 construct: purchased DiscoverX (KINOMEscan)

[19] = target: T19, CSF1R (Homo sapiens, UniProt P07333); conditions: 10 µM
T19 construct: purchased DiscoverX (KINOMEscan)

[20] = target: T20, PAK3 (Homo sapiens, UniProt O75914); conditions: 10 µM
T20 construct: purchased DiscoverX (KINOMEscan)

[21] = target: T21, MKK7 (Homo sapiens, UniProt O14733); conditions: 10 µM
T21 construct: purchased DiscoverX (KINOMEscan)

[22] = target: T22, PKAC-beta (Homo sapiens, UniProt P22694); conditions: 10 µM
T22 construct: purchased DiscoverX (KINOMEscan)

[23] = target: T23, HCK (Homo sapiens, UniProt P08631); conditions: 10 µM
T23 construct: purchased DiscoverX (KINOMEscan)

[24] = target: T24, TAOK3 (Homo sapiens, UniProt Q9H2K8); conditions: 10 µM
T24 construct: purchased DiscoverX (KINOMEscan)
T24 sequence (Q9H2K8 whole entry): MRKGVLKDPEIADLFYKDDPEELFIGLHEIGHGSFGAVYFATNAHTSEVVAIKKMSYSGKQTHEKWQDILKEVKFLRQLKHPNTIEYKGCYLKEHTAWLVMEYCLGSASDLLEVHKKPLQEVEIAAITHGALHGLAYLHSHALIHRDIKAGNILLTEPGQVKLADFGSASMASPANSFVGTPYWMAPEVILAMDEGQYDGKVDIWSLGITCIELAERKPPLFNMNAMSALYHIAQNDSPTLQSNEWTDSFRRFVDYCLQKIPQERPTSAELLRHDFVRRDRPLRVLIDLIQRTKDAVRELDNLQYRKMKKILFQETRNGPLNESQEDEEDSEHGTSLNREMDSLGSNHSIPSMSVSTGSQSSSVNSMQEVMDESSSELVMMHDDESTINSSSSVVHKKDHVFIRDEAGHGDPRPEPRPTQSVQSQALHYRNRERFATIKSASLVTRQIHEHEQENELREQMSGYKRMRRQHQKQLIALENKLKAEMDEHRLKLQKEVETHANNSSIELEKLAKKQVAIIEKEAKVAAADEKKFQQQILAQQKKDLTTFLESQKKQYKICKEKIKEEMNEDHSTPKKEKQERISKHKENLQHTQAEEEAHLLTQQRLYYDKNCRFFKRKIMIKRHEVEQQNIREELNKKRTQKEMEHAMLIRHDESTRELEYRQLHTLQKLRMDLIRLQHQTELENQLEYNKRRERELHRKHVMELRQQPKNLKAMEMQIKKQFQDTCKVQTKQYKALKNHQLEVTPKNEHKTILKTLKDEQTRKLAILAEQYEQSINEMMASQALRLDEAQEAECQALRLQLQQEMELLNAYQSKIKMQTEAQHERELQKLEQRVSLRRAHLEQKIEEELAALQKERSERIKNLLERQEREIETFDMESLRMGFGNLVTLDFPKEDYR

[25] = target: T25, KIT(V559DT670I) (Homo sapiens, UniProt P10721, T670I/V559D); conditions: 10 µM
T25 construct: purchased DiscoverX (KINOMEscan)

[26] = target: T26, ANKK1 (Homo sapiens, UniProt Q8NFD2)
T26 construct: purchased DiscoverX (KINOMEscan)
T26 sequence (Q8NFD2 1-765): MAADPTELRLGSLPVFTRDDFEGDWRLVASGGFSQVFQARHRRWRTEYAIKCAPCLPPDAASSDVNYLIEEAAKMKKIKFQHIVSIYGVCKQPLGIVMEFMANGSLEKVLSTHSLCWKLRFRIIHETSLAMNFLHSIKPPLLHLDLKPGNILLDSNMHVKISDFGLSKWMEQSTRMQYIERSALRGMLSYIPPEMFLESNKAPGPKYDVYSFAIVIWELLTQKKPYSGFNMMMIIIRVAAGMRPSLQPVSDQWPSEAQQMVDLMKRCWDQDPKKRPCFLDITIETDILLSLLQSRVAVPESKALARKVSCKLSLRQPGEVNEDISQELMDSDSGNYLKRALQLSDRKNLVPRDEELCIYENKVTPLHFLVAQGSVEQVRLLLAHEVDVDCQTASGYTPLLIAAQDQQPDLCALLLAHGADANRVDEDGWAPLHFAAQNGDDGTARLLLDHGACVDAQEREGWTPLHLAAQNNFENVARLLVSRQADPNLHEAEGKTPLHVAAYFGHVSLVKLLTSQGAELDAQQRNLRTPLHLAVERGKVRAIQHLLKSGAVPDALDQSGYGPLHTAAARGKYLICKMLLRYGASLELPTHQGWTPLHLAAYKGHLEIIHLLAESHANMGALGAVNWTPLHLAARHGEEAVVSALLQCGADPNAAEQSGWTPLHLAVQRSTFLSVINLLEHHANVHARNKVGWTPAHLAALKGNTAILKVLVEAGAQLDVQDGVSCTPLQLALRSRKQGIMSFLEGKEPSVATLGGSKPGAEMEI

[27] = target: T27, MEK3 (Homo sapiens, UniProt P46734); conditions: 10 µM
T27 construct: purchased DiscoverX (KINOMEscan)

[28] = target: T28, LIMK1 (Homo sapiens, UniProt P53667); conditions: 10 µM
T28 construct: purchased DiscoverX (KINOMEscan)

[29] = target: T29, YSK1 (Homo sapiens, UniProt O00506); conditions: 10 µM
T29 construct: purchased DiscoverX (KINOMEscan)

[30] = target: T30, PLK3 (Homo sapiens, UniProt Q9H4B4); conditions: 10 µM
T30 construct: purchased DiscoverX (KINOMEscan)

[31] = target: T31, DYRK1B (Homo sapiens, UniProt Q9Y463); conditions: 10 µM
T31 construct: purchased DiscoverX (KINOMEscan)

[32] = target: T32, CHEK2 (Homo sapiens, UniProt O96017); conditions: 10 µM
T32 construct: purchased DiscoverX (KINOMEscan)
T32 sequence (O96017 whole entry): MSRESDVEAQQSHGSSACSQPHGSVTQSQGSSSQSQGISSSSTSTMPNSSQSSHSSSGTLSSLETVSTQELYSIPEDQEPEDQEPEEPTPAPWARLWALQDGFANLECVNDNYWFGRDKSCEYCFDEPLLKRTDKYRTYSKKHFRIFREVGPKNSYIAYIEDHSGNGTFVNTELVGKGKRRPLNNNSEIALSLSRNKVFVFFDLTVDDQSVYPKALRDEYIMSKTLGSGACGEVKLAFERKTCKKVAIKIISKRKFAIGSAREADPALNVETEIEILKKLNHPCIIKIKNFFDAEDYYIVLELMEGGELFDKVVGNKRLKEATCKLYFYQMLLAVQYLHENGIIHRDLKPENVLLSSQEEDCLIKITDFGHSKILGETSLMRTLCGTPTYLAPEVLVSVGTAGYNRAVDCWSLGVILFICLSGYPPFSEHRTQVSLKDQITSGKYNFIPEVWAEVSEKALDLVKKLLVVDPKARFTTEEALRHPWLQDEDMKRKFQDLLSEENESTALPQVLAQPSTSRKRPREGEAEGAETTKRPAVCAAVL

[33] = target: T33, CSNK1E (Homo sapiens, UniProt P49674); conditions: 10 µM
T33 construct: purchased DiscoverX (KINOMEscan)

T1 sequence (Q9NRH2 whole entry): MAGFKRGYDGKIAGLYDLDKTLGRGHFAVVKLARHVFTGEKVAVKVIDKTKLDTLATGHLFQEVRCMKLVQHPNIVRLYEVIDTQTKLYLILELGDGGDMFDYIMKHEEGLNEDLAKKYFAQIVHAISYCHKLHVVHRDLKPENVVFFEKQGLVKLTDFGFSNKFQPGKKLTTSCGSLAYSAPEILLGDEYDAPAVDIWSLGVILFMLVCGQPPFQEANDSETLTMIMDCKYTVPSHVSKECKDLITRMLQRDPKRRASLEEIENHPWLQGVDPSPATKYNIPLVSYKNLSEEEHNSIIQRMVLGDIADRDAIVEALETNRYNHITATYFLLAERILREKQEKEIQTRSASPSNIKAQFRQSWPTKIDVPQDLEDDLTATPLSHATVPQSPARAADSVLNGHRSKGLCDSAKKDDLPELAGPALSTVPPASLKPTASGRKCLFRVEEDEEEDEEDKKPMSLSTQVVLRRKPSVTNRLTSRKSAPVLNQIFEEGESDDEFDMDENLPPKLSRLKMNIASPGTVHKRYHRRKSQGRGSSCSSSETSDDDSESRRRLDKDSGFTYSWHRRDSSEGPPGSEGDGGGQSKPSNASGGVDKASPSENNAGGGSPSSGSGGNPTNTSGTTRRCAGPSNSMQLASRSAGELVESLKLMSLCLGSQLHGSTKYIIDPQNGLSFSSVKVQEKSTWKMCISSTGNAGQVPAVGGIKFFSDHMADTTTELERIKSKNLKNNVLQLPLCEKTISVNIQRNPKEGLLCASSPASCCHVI

## Nc1ccc(N=Nc2ccccc2)c(N)n1 [phenazopyridine, 2,6-diamino-3-(phenylazo)pyridine]
[1]
  kinase inhibition: 100
[2]
  kinase inhibition: 99
[3]
  kinase inhibition: 95
[4]; MKNK2, read-out: % Of control
  remaining binding at 10 µM: 6.6%
[4]; MKNK2, 10 µM
  remaining binding (% of control): 6.6
[4]; MNK2, read-out: Kinome scan (% of control at 10 µM)
  remaining binding at 10 µM: 6.6%
[5]
  kinase inhibition: 72
[6]
  kinase inhibition: 100
[7]
  kinase inhibition: 100
[8]
  kinase inhibition: 91
[9]
  kinase inhibition: 100
[10]
  kinase inhibition: 100
[11]
  kinase inhibition: 98
[12]
  kinase inhibition: 77
[13]
  kinase inhibition: 82
[14]
  kinase inhibition: 100
[15]
  kinase inhibition: 90
[16]
  kinase inhibition: 100
[17]
  kinase inhibition: 100
[18]
  kinase inhibition: 85
[19]
  kinase inhibition: 81
[20]
  kinase inhibition: 99
[21]
  kinase inhibition: 100
[22]
  kinase inhibition: 95
[23]
  kinase inhibition: 100
[24]
  kinase inhibition: 79
[25]
  kinase inhibition: 71
[26]; 10 µM
  remaining binding (% of control): 18
[26]; read-out: % Of control
  remaining binding at 10 µM: 18%
[27]
  kinase inhibition: 54
[28]
  kinase inhibition: 100
[29]
  kinase inhibition: 96
[30]
  remaining binding (% of control): 98
[31]
  remaining binding (% of control): 69
[32]
  kinase inhibition: 99
[33]
  kinase inhibition: 44
